This assay concerns the target T1, Dimer of Gag-Pol polyprotein [489-587] (Human immunodeficiency virus 1, UniProt P04585).
T1 construct: 489-587
In words: Protease Inhibition Assay. Particulars: pH 5.5; 30 °C. The procedure:
Sensitivity of HIV-1 protease activity to protease inhibitors was determined by a peptide substrate cleavage assay. Protease products were analyzed on a reverse-phase high-pressure liquid chromatograph.

SMILES strings stand for the structures.

For the compound `CCC(C)[C@H](NC(=O)[C@H](Cc1ccccc1)C[C@H](O)[C@H](Cc1ccccc1)NC(=O)OC(C)(C)C)C(=O)N[C@@H](Cc1ccccc1)C(N)=O` (stereo partly drawn) [tert-butyl N-[(2S,3S,5R)-5-benzyl-5-{[(1S,2S)-1-{[(1S)-1-carbamoyl-2-phenylethyl]carbamoyl}-2-methylbutyl]carbamoyl}-3-hydroxy-1-phenylpentan-2-yl]carbamate], the half-maximal inhibitory concentration (IC50) (as a rule, the midpoint of a concentration-inhibition curve) amounted to 0.25 nM. Next, `CC(C)C[C@H](NC(=O)[C@H](Cc1ccccc1)C[C@H](O)[C@H](Cc1ccccc1)NC(=O)OC(C)(C)C)C(=O)N[C@@H](Cc1ccccc1)C(N)=O` [Hydroxyethylene dipeptide isostere]: 0.6 nM.
